The values that follow come from patent publication US10242153B2, “Method for determining the risk profile of neoplastic tissue” (NOVAZOI THERANOSTICS, priority 2014, dated 2019).

The test system of assay [1] is HeLa cells. Description: Peak subG1 fraction by flow cytometry after declustering drugs, HeLa cells. It counts as cell-based. The procedure:
(§1) To evaluate the impact of putative declustering drugs on cell cycle progression and hypodiploidy (<2N DNA content, which may indicate apoptotic cells), MDA-MB-231 (231), PC3, and HeLa cells were treated with different concentrations of declustering drugs, stained with propidium iodide, labeled with anti-MPM2 antibody, and then assessed by flow cytometry at multiple time points over 48 hr. […] The duration, highest degree, and rapidity of onset of MA varied between drugs, drug concentrations, and cell lines (data not shown). In general, the maximum MA achieved was less pronounced in Nos- and PJ-treated cells. Drug-induced onset of MA was corroborated by substantial increases in cyclin B1 levels in all cell lines. For most cases, prolonged MA (˜24 hr in duration) was followed by a substantial increase in the subG1 population fraction. […] Instances where the subGl fraction was elevated without cleaved caspase-3 may either represent caspase-independent cell death or the presence of hypodiploid cells whose fate is unclear. In general, no consistent associations between the extent, duration, or timing of MA within drugs or across cell lines was found.

In assay [2] the test system is PC3 cells. Description: Peak subG1 fraction by flow cytometry after declustering drugs, PC3 cells. The class given is cell-based. The procedure:
as §1

Assay [3] deals with adult human dermal fibroblasts (HDFs). Description: Peak subG1 fraction after declustering drugs, non-malignant HDFs. The class given is cell-based. As to conditions: for Peak subG1 percents over 48 h: HDF; for death in cancer cell lines vs. HDFs: both concentrations. The procedure:
as §1
(§2) To determine whether the CA-inducing activity of declustering drugs is restricted to cancer cells, two non-malignant cell lines, mammary fibrocystic (MCF10A) cells and adult human dermal fibroblasts (HDFs) were treated with these drugs. […] In comparison, 10 and 25 µM RBN increased peak CA over controls in interphase cells (p<0.001 and p=0.001, respectively), with the lower concentration dramatically augmenting peak CA to 56% of cells versus 15% for the higher dose (FIG. 13, panel B).
In HDFs, all the drugs tested increased peak subG1 over controls in a significant fashion (p<0.01 for all) (Table 2). […] Thus, it appears that there may be clinically relevant therapeutic windows for these drugs depending on the type of cancer and the drug dosage.

Assay [4] deals with mammary fibrocystic (MCF10A) cells. In words: Peak subG1 fraction after declustering drugs, non-malignant MCF10A cells. The class given is cell-based. Particulars: for peak subG1 percent compared to controls: MCF10A cells; for Peak subG1 percents over 48 h: MCF10A. The protocol: as §1, §2
Importantly, a therapeutic window exists for several of these agents at the concentrations and in the cell lines tested compared to cancer cells.

Assay [5] relates to HeLa cells. Description: Centrosome amplification (CA) by microscopy, HeLa cells. It counts as cell-based. As to conditions: for cells having CA (maximum extent) / increase in CA over controls: mitotic HeLa cells. The procedure:
Consequently, CA was assessed in cultures treated with different concentrations of declustering drugs for 6, 12, 18, or 24 h and untreated controls via microscopy. Centrosomes were identified by γ-tubulin and centrin-2 colocalization at discrete foci. […] The peak percent CA detected over 24 h is shown in FIG. 13 (only statistically significant (P<0.05) increases over control values are represented in the Figures). To better understand the “potency” of drug-induced CA with time, the average fold change in CA over controls over 24 h was assessed (FIG. 12, panel A), whereby the extent of CA across time points (i.e., 6, 12, 18, and 24 hr) was averaged and then divided by the extent of CA in control (i.e., 0 hr). All of the drugs at least doubled the peak extent of CA in all cell lines tested (FIG. 12, panel A), although the final extent of CA could be small or large in magnitude depending on the initial centrosomal burden as shown in FIG. 11. […] The peak extent in interphase HeLa cells was somewhat less at 30.7% and 48.1% for 10 and 25 μM RBN, respectively (FIG. 13, panel A). For Nos and BN, there was no major difference in CA levels in interphase versus mitotic cells.

For assay [6], the system named is MCF10A cells. In words: Centrosome amplification (CA) by microscopy, MCF10A cells. The class given is cell-based. The protocol: (§3) Consequently, CA was assessed in cultures treated with different concentrations of declustering drugs for 6, 12, 18, or 24 h and untreated controls via microscopy. Centrosomes were identified by γ-tubulin and centrin-2 colocalization at discrete foci.
as §2

Assay [7] relates to adult human dermal fibroblasts (HDFs). In words: Centrosome amplification (CA) by microscopy, HDFs. As to conditions: for peak CA: interphase HDFs. It counts as cell-based. The procedure:
as §3, §2

The test system of assay [8] is MDA-MB-231 (231), PC3, and HeLa cells. In words: Mitotic arrest (MA) metrics by flow cytometry (anti-MPM2) across cell lines. The class given is cell-based. An excerpt: FIG. 10 depicts mitotic arrest metrics across cell lines for each declustering drug. […] A lack of box in the plot occurs when the median is very close (or equal) to the inter-quartile range limits, in which case notch is shown with a default height and starting point of whisker line extension indicates 25% or 75% position. Because the coarse-grained data are integers and the size of the data sets are small (n<8), in some cases the median, lower or upper inter-quartile range values, or the max or min values, may coincide in some combination. This figure broadly visualizes clustering and correlation in the coarse-grained data. For instance, non-integer values have no intrinsic meaning but, for instance, a median value of 4.4 indicates a concentration of categories recorded in categories 4 or 5. […] TRH=“time reach highest” value; CTP=“consecutive time points,” MA_totCTP=sum(MA_SnCTP for n=2 . . . 5).
To evaluate the impact of putative declustering drugs on cell cycle progression and hypodiploidy (<2N DNA content, which may indicate apoptotic cells), MDA-MB-231 (231), PC3, and HeLa cells were treated with different concentrations of declustering drugs, stained with propidium iodide, labeled with anti-MPM2 antibody, and then assessed by flow cytometry at multiple time points over 48 hr. […]

Assay [9] has as its system N1E-115 cells. Description: Vinculin localization in serum-starved N1E-115 cells. The class given is cell-based, murine. Particulars: serum-starved (SS) cells. An excerpt: Vinculin stabilizes cell-substrate contacts in neuronal cells undergoing neuritogenesis, while activation by actin-binding proteins mobilizes vinculin to focal adhesions. To determine the localization of vinculin in the neurite extensions and the effect of declustering agents on its localization, N1E-115 cells were immunostained cells for vinculin and stained F-actin using rhodamine-phalloidin.

Assay [10] relates to N1E-115 cells. Description: Ki67 and cleaved caspase-3 immunostaining of serum-starved N1E-115 cells. The class given is cell-based, murine. Particulars: RedBr-Nos 5 μM, Griseofulvin 10 μM, PJ-34 10 μM.
Where [11] appears, read: interphase HeLa cells, 25 μM, over 24 h.

Turning to `CN(C)CC(=O)Nc1ccc2[nH]c(=O)c3ccccc3c2c1` [PJ, PJ-34], the “Peak subG1 percents over 48 h” value in assay [1] (10 μM) is reported as 48.5%; in [1] (25 μM), 64.4%; in assay [2] (10 μM) it was 62.4%; in assay [2] (25 μM), 48.4%; in assay [3] (10 μM), 13.6%; in [3] (25 μM), 28.2%. Also, the “Peak subG1 percents over 48 h” value was 6.9% in assay [4] (10 μM) and 9.1% in [4] (25 μM). Further, the “maximum (peak) subG1 fraction relative to control” value in assay [1] (10 μM) is on record as 4.8 × control. The “death in cancer cell lines vs. HDFs” value in [3] is recorded as “more death in all cancer cell lines vs. HDFs”. In [4], the “peak subG1 percent compared to controls” value is recorded as “did not cause a significant increase”. Further, the “increase in peak CA extent over controls” value in assay [5] (interphase HeLa cells, 25 μM) is ~20 fold. Also, the “peak (final) extent of CA” value in assay [5] (setting [11]) was < 20%. In addition, in [6] (interphase MCF10A cells, 10 μM), the “peak extent of CA” value is 8 % of cells. In [6] (interphase and mitotic MCF10A cells, 25 μM), the “peak extent of CA versus controls” value is “increased the peak extent of CA in interphase and mitotic cells”. In addition, the “extent of CA over controls” value in [7] (HDFs, any of the concentrations or time points assessed) is given as “no significant impact on CA”. The “mean time to peak MA (MA:TRH)” value in [8] (coarse-grained categories) is ~12 h. Besides, in assay [9], the “vinculin localization and focal adhesion points” value was “less severe”. The Ki67-positive cells result in assay [10] is reported as “high proportion of Ki67-positive cells”.

Turning to reduced-9-bromonoscapine [RBN], the “Peak subG1 percents over 48 h” value worked out at 54.1% in assay [1] (10 μM); 75.6% in assay [1] (25 μM); 80.7% in assay [2] (10 μM); 73.0% in [2] (25 μM); 35.9% in [3] (10 μM); 39.9% in assay [3] (25 μM). Besides, the entries for the “Peak subG1 percents over 48 h” value in assay [4] (10 μM) and in assay [4] (25 μM) were 36.4% and 44.0%, respectively. In addition, the “maximum (peak) subG1 fraction relative to control” value in [1] (10 μM) was found to be 9 × control; in assay [2] (10 μM), 8 × control. The “death in cancer cell lines vs. HDFs” value in assay [3] is “more death in 231 cells”. The “peak subG1 / toxicity in MCF10A cells versus cancer cell lines” value in [4] (10 μM) is reported as “smaller peak subG1 in MCF10A cells as compared to 231 cells”. Besides, the “susceptibility / toxicity in MCF10A cells versus cancer cell lines” value in [4] (25 μM) is “much greater increases in toxicity to 231 and PC3 cells”. For the same compound, the “peak subG1 percent compared to controls” value in assay [4] is “did increase peak SubG1”. Also, the “peak extent of CA” value in [5] (interphase HeLa cells, 10 μM, over 24 h) is recorded as 30.7%. Further, the “peak (final) extent of CA” value in [5] (setting [11]) was determined as 48.1%. Also, the “cells having CA (maximum extent)” value in assay [5] (10 μM) is 78%; in assay [5] (25 μM), 42%. For the same compound, the figures for the “increase in CA over controls” value in assay [5] (10 μM) and in assay [5] (25 μM) were “approximately 40 fold” and ~20 fold, respectively. In addition, in [6] (interphase and mitotic MCF10A cells, both concentrations (10 and 25 μM), over 24 h), the “CA / peak extent of CA versus control levels” value is “significantly increased the peak extent of CA”. For the same compound, the “peak CA” value in [7] (10 μM) is listed as 56 % of cells; in assay [7] (25 μM), 15%. Moreover, the “extent of CA” value in assay [7] (mitotic HDFs, 10 μM) turned out to be 10%. In [7] (mitotic HDFs, 25 μM), the “extent of CA versus controls” value is “Only 10 but not 25 μM RBN increased the extent of CA in mitotic cells”. Further, the “peak MA (MA:HR), cells in MA” value in assay [8] (category near "4") was ≥ 30%. Besides, the “vinculin localization and focal adhesion points” value in assay [9] is “complete internalization of vinculin and complete loss of focal adhesion points”. For the same compound, the Ki67-positive cells result in [10] is given as “high proportion of Ki67-positive cells”.
